Organism: Rattus norvegicus
Experiment: DrugMatrix - Regimen: Daily Repeat
Assay type: toxicity, organism-based, Sprague-Dawley
Parameters: regimen Daily Repeat, gender Male, age 6-8 weeks
Settings: in vivo, po, route oral GAVAGE, […]; for ABSOLUTE BASOPHIL / ABSOLUTE EOSINOPHIL / ABSOLUTE LYMPHOCYTE / ABSOLUTE MONOCYTE / ABSOLUTE SEGMENTED NEUTROPHIL / BASOPHIL / EOSINOPHIL / ERYTHROCYTE COUNT / HEMATOCRIT / HEMOGLOBIN / LEUKOCYTE COUNT / LYMPHOCYTE / MEAN CORPUSCULAR HEMOGLOBIN / MEAN CORPUSCULAR HEMOGLOBIN CONCENTRATION / MEAN CORPUSCULAR VOLUME / MONOCYTE / NEUTROPHIL / NUCLEATED RED BLOOD CELLS / PLATELET COUNT: tissue Blood; for ALANINE AMINOTRANSFERASE / ALBUMIN / ALKALINE PHOSPHATASE / ASPARTATE AMINOTRANSFERASE / BLOOD UREA NITROGEN / CARBON DIOXIDE / CHLORIDE / CHOLESTEROL / CREATINE PHOSPHOKINASE / CREATININE / GLUCOSE / LACTATE DEHYDROGENASE / LIPASE / PHOSPHORUS / POTASSIUM / SODIUM / TOTAL BILIRUBIN / TOTAL PROTEIN / URIC ACID: tissue Plasma
[1] = 11 mg/kg, 120 h, dose level High, time 5 day
[2] = 72 h, dose 0.26 mg/Kg, dose level Low, time 3 day
[3] = 120 h, dose 0.26 mg/Kg, dose level Low, time 5 day

Question: With `C[C@H]1O[C@@H](O[C@H]2[C@@H](O)C[C@H](O[C@H]3[C@@H](O)C[C@H](O[C@H]4CC[C@@]5(C)[C@H](CC[C@@H]6[C@@H]5C[C@@H](O)[C@]5(C)[C@@H](C7=CC(=O)OC7)CC[C@]65O)C4)O[C@@H]3C)O[C@@H]2C)C[C@H](O)[C@@H]1O` [DIGOXIN] as the molecule, how does the “ABSOLUTE BASOPHIL” value [1] read?
Answer: 0 CELLS/uL

Question: And the “ABSOLUTE EOSINOPHIL” value [1]?
Answer: 21.33 CELLS/uL

Question: What about the “ABSOLUTE LYMPHOCYTE” value [1] of the same molecule?
Answer: 5911 CELLS/uL

Question: And the “ABSOLUTE MONOCYTE” value [1]?
Answer: 0 CELLS/uL

Question: What about the “ABSOLUTE SEGMENTED NEUTROPHIL” value [1] of the same molecule?
Answer: 367.67 CELLS/uL

Question: What about the BASOPHIL [1] of the same molecule?
Answer: 0%

Question: And the EOSINOPHIL [1]?
Answer: 0.33%

Question: And the “ERYTHROCYTE COUNT” value [1]?
Answer: 6.17 x10E6/uL

Question: And the HEMATOCRIT [1]?
Answer: 38.03%

Question: And the HEMOGLOBIN [1]?
Answer: 15.03 G/DL

Question: What about the “LEUKOCYTE COUNT” value [1] of the same molecule?
Answer: 6.3 x10E3/uL

Question: And the LYMPHOCYTE [1]?
Answer: 94.33%

Question: What about the “MEAN CORPUSCULAR HEMOGLOBIN” value [1] of the same molecule?
Answer: 24.37 pg

Question: What about the “MEAN CORPUSCULAR HEMOGLOBIN CONCENTRATION” value [1] of the same molecule?
Answer: 39.53 G/DL

Question: And the “MEAN CORPUSCULAR VOLUME” value [1]?
Answer: 61.63 fL

Question: What about the MONOCYTE [1] of the same molecule?
Answer: 0%

Question: What about the NEUTROPHIL [1] of the same molecule?
Answer: 5.33%

Question: And the “NUCLEATED RED BLOOD CELLS” value [1]?
Answer: 0 /100WBC

Question: And the “PLATELET COUNT” value [1]?
Answer: 1098 x10E3/uL

Question: And the “ALANINE AMINOTRANSFERASE” value [1]?
Answer: 90 u/L

Question: And the ALBUMIN [1]?
Answer: 4.37 G/DL

Question: What about the “ALKALINE PHOSPHATASE” value [1] of the same molecule?
Answer: 342 u/L

Question: What about the “ASPARTATE AMINOTRANSFERASE” value [1] of the same molecule?
Answer: 79.67 u/L

Question: And the “BLOOD UREA NITROGEN” value [1]?
Answer: 9.33 mg/dL

Question: And the “CARBON DIOXIDE” value [1]?
Answer: 32.67 mmol/L

Question: What about the CHLORIDE [1] of the same molecule?
Answer: 95 MEQ/L

Question: And the CHOLESTEROL [1]?
Answer: 90.67 mg/dL

Question: And the “CREATINE PHOSPHOKINASE” value [1]?
Answer: 208.33 u/L

Question: And the CREATININE [1]?
Answer: 0.11 mg/dL

Question: And the GLUCOSE [1]?
Answer: 175.67 mg/dL

Question: And the “LACTATE DEHYDROGENASE” value [1]?
Answer: 92 u/L

Question: What about the LIPASE [1] of the same molecule?
Answer: 9.33 u/L

Question: And the PHOSPHORUS [1]?
Answer: 9.27 mg/dL

Question: And the POTASSIUM [1]?
Answer: 4.94 MEQ/L

Question: And the SODIUM [1]?
Answer: 141.5 MEQ/L

Question: And the “TOTAL BILIRUBIN” value [1]?
Answer: 0.17 mg/dL

Question: And the “TOTAL PROTEIN” value [1]?
Answer: 6.23 G/DL

Question: And the “URIC ACID” value [1]?
Answer: 0.5 mg/dL

Question: And the “ABSOLUTE BASOPHIL” value [2]?
Answer: 0 CELLS/uL

Question: What about the “ABSOLUTE EOSINOPHIL” value [2] of the same molecule?
Answer: 80.67 CELLS/uL

Question: And the “ABSOLUTE LYMPHOCYTE” value [2]?
Answer: 8480.33 CELLS/uL

Question: And the “ABSOLUTE MONOCYTE” value [2]?
Answer: 0 CELLS/uL

Question: And the “ABSOLUTE SEGMENTED NEUTROPHIL” value [2]?
Answer: 705.67 CELLS/uL

Question: What about the BASOPHIL [2] of the same molecule?
Answer: 0%

Question: What about the EOSINOPHIL [2] of the same molecule?
Answer: 0.67%

Question: What about the “ERYTHROCYTE COUNT” value [2] of the same molecule?
Answer: 5.56 x10E6/uL

Question: What about the HEMATOCRIT [2] of the same molecule?
Answer: 34.27%

Question: And the HEMOGLOBIN [2]?
Answer: 13.27 G/DL

Question: And the “LEUKOCYTE COUNT” value [2]?
Answer: 9.27 x10E3/uL

Question: And the LYMPHOCYTE [2]?
Answer: 91.67%

Question: And the “MEAN CORPUSCULAR HEMOGLOBIN” value [2]?
Answer: 23.83 pg

Question: What about the “MEAN CORPUSCULAR HEMOGLOBIN CONCENTRATION” value [2] of the same molecule?
Answer: 38.73 G/DL

Question: What about the “MEAN CORPUSCULAR VOLUME” value [2] of the same molecule?
Answer: 61.63 fL

Question: And the MONOCYTE [2]?
Answer: 0%

Question: And the NEUTROPHIL [2]?
Answer: 7.67%

Question: And the “NUCLEATED RED BLOOD CELLS” value [2]?
Answer: 0 /100WBC

Question: What about the “PLATELET COUNT” value [2] of the same molecule?
Answer: 1014 x10E3/uL

Question: What about the “ALANINE AMINOTRANSFERASE” value [2] of the same molecule?
Answer: 79.33 u/L

Question: And the ALBUMIN [2]?
Answer: 3.97 G/DL

Question: What about the “ALKALINE PHOSPHATASE” value [2] of the same molecule?
Answer: 406.67 u/L

Question: What about the “ASPARTATE AMINOTRANSFERASE” value [2] of the same molecule?
Answer: 82.67 u/L

Question: What about the “BLOOD UREA NITROGEN” value [2] of the same molecule?
Answer: 14.67 mg/dL

Question: What about the “CARBON DIOXIDE” value [2] of the same molecule?
Answer: 34 mmol/L

Question: And the CHLORIDE [2]?
Answer: 101.33 MEQ/L

Question: And the CHOLESTEROL [2]?
Answer: 79.33 mg/dL

Question: And the “CREATINE PHOSPHOKINASE” value [2]?
Answer: 157.33 u/L

Question: And the CREATININE [2]?
Answer: 0.12 mg/dL

Question: What about the GLUCOSE [2] of the same molecule?
Answer: 161 mg/dL

Question: What about the “LACTATE DEHYDROGENASE” value [2] of the same molecule?
Answer: 84 u/L

Question: And the LIPASE [2]?
Answer: 10 u/L

Question: And the PHOSPHORUS [2]?
Answer: 9.57 mg/dL

Question: And the POTASSIUM [2]?
Answer: 6.36 MEQ/L

Question: What about the SODIUM [2] of the same molecule?
Answer: 146.27 MEQ/L

Question: What about the “TOTAL BILIRUBIN” value [2] of the same molecule?
Answer: 0.27 mg/dL

Question: What about the “TOTAL PROTEIN” value [2] of the same molecule?
Answer: 5.63 G/DL

Question: What about the “URIC ACID” value [2] of the same molecule?
Answer: 1.2 mg/dL

Question: And the “ABSOLUTE BASOPHIL” value [3]?
Answer: 0 CELLS/uL

Question: And the “ABSOLUTE EOSINOPHIL” value [3]?
Answer: 0 CELLS/uL

Question: What about the “ABSOLUTE LYMPHOCYTE” value [3] of the same molecule?
Answer: 13719.67 CELLS/uL

Question: And the “ABSOLUTE MONOCYTE” value [3]?
Answer: 0 CELLS/uL

Question: And the “ABSOLUTE SEGMENTED NEUTROPHIL” value [3]?
Answer: 1313.67 CELLS/uL

Question: And the BASOPHIL [3]?
Answer: 0%

Question: What about the EOSINOPHIL [3] of the same molecule?
Answer: 0%

Question: What about the “ERYTHROCYTE COUNT” value [3] of the same molecule?
Answer: 5.8 x10E6/uL

Question: And the HEMATOCRIT [3]?
Answer: 35.03%

Question: And the HEMOGLOBIN [3]?
Answer: 13.67 G/DL

Question: What about the “LEUKOCYTE COUNT” value [3] of the same molecule?
Answer: 15.03 x10E3/uL

Question: What about the LYMPHOCYTE [3] of the same molecule?
Answer: 90.33%

Question: What about the “MEAN CORPUSCULAR HEMOGLOBIN” value [3] of the same molecule?
Answer: 23.57 pg

Question: What about the “MEAN CORPUSCULAR HEMOGLOBIN CONCENTRATION” value [3] of the same molecule?
Answer: 39.03 G/DL

Question: And the “MEAN CORPUSCULAR VOLUME” value [3]?
Answer: 60.4 fL

Question: And the MONOCYTE [3]?
Answer: 0%

Question: And the NEUTROPHIL [3]?
Answer: 9.67%

Question: What about the “NUCLEATED RED BLOOD CELLS” value [3] of the same molecule?
Answer: 0 /100WBC

Question: What about the “PLATELET COUNT” value [3] of the same molecule?
Answer: 1074 x10E3/uL

Question: And the “ALANINE AMINOTRANSFERASE” value [3]?
Answer: 64.67 u/L

Question: What about the ALBUMIN [3] of the same molecule?
Answer: 4.03 G/DL

Question: And the “ALKALINE PHOSPHATASE” value [3]?
Answer: 401.33 u/L

Question: What about the “ASPARTATE AMINOTRANSFERASE” value [3] of the same molecule?
Answer: 82.67 u/L

Question: What about the “BLOOD UREA NITROGEN” value [3] of the same molecule?
Answer: 15.33 mg/dL

Question: What about the “CARBON DIOXIDE” value [3] of the same molecule?
Answer: 31.67 mmol/L

Question: And the CHLORIDE [3]?
Answer: 100.33 MEQ/L

Question: What about the CHOLESTEROL [3] of the same molecule?
Answer: 58.67 mg/dL

Question: What about the “CREATINE PHOSPHOKINASE” value [3] of the same molecule?
Answer: 259 u/L

Question: And the CREATININE [3]?
Answer: 0.14 mg/dL

Question: And the GLUCOSE [3]?
Answer: 148.33 mg/dL

Question: What about the “LACTATE DEHYDROGENASE” value [3] of the same molecule?
Answer: 110 u/L

Question: What about the LIPASE [3] of the same molecule?
Answer: 9.33 u/L

Question: And the PHOSPHORUS [3]?
Answer: 9.93 mg/dL

Question: What about the POTASSIUM [3] of the same molecule?
Answer: 5.45 MEQ/L

Question: And the SODIUM [3]?
Answer: 144.47 MEQ/L

Question: And the “TOTAL BILIRUBIN” value [3]?
Answer: 0.2 mg/dL

Question: What about the “TOTAL PROTEIN” value [3] of the same molecule?
Answer: 5.73 G/DL

Question: What about the “URIC ACID” value [3] of the same molecule?
Answer: 0.7 mg/dL
